The values below come from patent US10259808B2 (Genentech, Inc., priority 2015, dated 2019).

Structures can show the parent of a compound that is named as a salt.

The target of this assay is T1, RORc ligand binding domain (Homo sapiens, UniProt P51449).
T1 sequence (P51449 269-508 limits assumed): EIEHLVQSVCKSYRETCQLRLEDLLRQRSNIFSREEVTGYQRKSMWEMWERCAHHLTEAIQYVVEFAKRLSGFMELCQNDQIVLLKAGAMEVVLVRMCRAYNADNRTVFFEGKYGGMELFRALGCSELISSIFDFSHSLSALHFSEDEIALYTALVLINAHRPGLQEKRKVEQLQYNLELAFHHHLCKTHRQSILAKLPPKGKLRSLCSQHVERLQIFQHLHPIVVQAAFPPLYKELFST
Kind of assay: In vitro RORc ligand binding assay (25-[3H]hydroxycholesterol displacement).
Method: This assay was used to determine a compound's potency in inhibiting activity of RORc by determining, Kiapp, IC50, or percent inhibition values.
On day of the assay, 100 uL of 0.05% CHAPS (in deionized H2O) was added to all wells of the GFB Unifilter plate and allowed soak for 1 h. A wash buffer of 50 mM HEPES (pH 7.4), 150 mM NaCl, and 5 mM MgCl2 was prepared to wash the filter plate. To prepare an assay buffer, BSA was added to the wash buffer to reach 0.01% and DTT was added to reach 1 mM.
The 20× compound stocks were diluted in DMSO with Assay Buffer 4-fold to reach 5× the final test concentration in 25% DMSO (10 uL compound+30 uL Assay Buffer). Solutions were mixed by aspiration several times with a pipette set on 50 uL volume.
For two point screening, 10 mM stock compound solutions were diluted in DMSO to obtain 200 uM (20× the high test concentration) and then diluted 10-fold further to reach 20 uM (20× the low test concentration). The 20× stocks were diluted 4-fold with Assay Buffer (10 uL compound+30 uL Assay Buffer) to reach 5× the test concentrations (50 uM and 5 uM) and 10 uL were added to two assay plates for the duplicate wells. With each concentration tested on 2 plates, each set of 80 compounds used 4 assay plates (1 uM and 10 uM, with n=2).
Nonspecific Binding (NSB) Samples, Total Binding (TB) Samples and No Receptor (No R) Samples
For 25-hydroxycholesterol in 25% DMSO/75% Assay Buffer; 10 uL per well was used for NSB samples. Wells for Total Binding and No Receptor sample determination contained 10 uL of 25% DMSO/75% Assay Buffer per well.
Radioligand 25-[^3H]Hydroxycholesterol) Preparation
Add 20 uL to all wells to reach 6 nM final in the assay.
Stock receptor solution was diluted in assay buffer to obtain 1.5 ug/mL in Assay Buffer. 20 uL was added to all wells. For No R samples, 20 uL Assay Buffer was substituted for receptor solution.
Sample addition to Plates and Incubation
Assay plates were 96-well polypropylene V-bottom plates. […] 10 uL of 25% DMSO/75% Assay Buffer was added to Total Binding or No Receptor wells. 10 uL of 5 uM 25-hydroxycholesterol in 25% DMSO/75% Assay Buffer was added to NSB wells. […] 20 uL of 1.5 ug/mL RORc receptor was added to wells (or 40 uL Assay Buffer to No R wells). Following addition to the wells, the plates were incubated 3 h at 25° C.
Using a Packard Filtermate Harvester, the filter plate were washed 4 times following transfer of the incubated samples. Plates were dry-filtered completely (2 h at 50° C. or overnight at room temperature). 50 uL Microscint 0 was added to all wells and read on Topcount protocol Inverted.
Final concentrations were as follows: 50 mM HEPES buffer (pH 7.4); 150 mM NaCl; 1 mM DTT; 5 mM MgCl2; 0.01% BSA; 5% DMSO; 0.6 ug/mL RORc receptor; 6 nM 25-[^3H]hydroxycholesterol. For NSB wells, 1 uM 25-hydroxycholesterol was also present.
As a reminder, the IC50 is the midpoint of a concentration-inhibition curve. Higher therefore signals a need for much substance. In turn, `C[C@H]1CC[C@H](c2ccccc2)S(=O)(=O)N1Cc1ccc(C2(N3C=NC(=O)/C3=C\O)CCOCC2)cc1F` [Example 69, (5E)-1-[4-[3-fluoro-4-[[(3S,6R)-3-methyl-1,1-dioxo-6-phenyl-thiazinan-2-yl]methyl]phenyl]tetrahydropyran-4-yl]-5-(hydroxymethylene)imidazol-4-one] gave an IC50 of 83.3 nM.

As to `C[C@H]1CC[C@H](c2ccccc2)S(=O)(=O)N1Cc1ccc(C2(n3cn[nH]c3=O)CCOCC2)cc1F` [Example 70, 4-[4-[3-fluoro-4-[[(3S,6R)-3-methyl-1,1-dioxo-6-phenyl-thiazinan-2-yl]methyl]phenyl]tetrahydropyran-4-yl]-1H-1,2,4-triazol-5-one], the IC50 came to 113 nM.

`C[C@H]1CC[C@H](c2ccccc2)S(=O)(=O)N1Cc1ccc(C2(NCc3ncco3)CCOCC2)cc1F` [Example 71, 4-[3-fluoro-4-[[(3S,6R)-3-methyl-1,1-dioxo-6-phenyl-thiazinan-2-yl]methyl]phenyl]-N-(oxazol-2-ylmethyl)tetrahydropyran-4-amine]: the IC50 amounted to 2.5 nM.

As for `C[C@H]1CC[C@H](c2ccccc2)S(=O)(=O)N1Cc1ccc(C2(NCc3cc[nH]c(=O)c3)CCOCC2)cc1F` [Example 72, 4-[[[4-[3-fluoro-4-[[(3S,6R)-3-methyl-1,1-dioxo-6-phenyl-thiazinan-2-yl]methyl]phenyl]tetrahydropyran-4-yl]amino]methyl]-1H-pyridin-2-one], the IC50 was determined as 10.6 nM.

In turn, `C[C@H]1CC[C@H](c2ccccc2)S(=O)(=O)N1Cc1cc(F)c(C2(NCc3ccn[nH]3)CCOCC2)cc1F` [Example 73, 4-[2,5-difluoro-4-[[(3S,6R)-3-methyl-1,1-dioxo-6-phenyl-thiazinan-2-yl]methyl]phenyl]-N-(1H-pyrazol-5-ylmethyl)tetrahydropyran-4-amine] displayed an IC50 of 2.9 nM.

Take `C[C@H]1CC[C@H](c2ccccc2)S(=O)(=O)N1Cc1cc(F)c(C2(c3nc(CO)co3)CCOCC2)cc1F` [Example 74, [2-[4-[2,5-difluoro-4-[[(3S,6R)-3-methyl-1,1-dioxo-6-phenyl-thiazinan-2-yl]methyl]phenyl]tetrahydropyran-4-yl]oxazol-4-yl]methanol]: the IC50 turned out to be 12.8 nM.

Turning to `C[C@H]1CC[C@H](c2ccccc2)S(=O)(=O)N1Cc1cc(F)c(C2(NCc3cocn3)CCOCC2)cc1F` [Example 75, 4-[2,5-difluoro-4-[[(3S,6R)-3-methyl-1,1-dioxo-6-phenyl-thiazinan-2-yl]methyl]phenyl]-N-(oxazol-4-ylmethyl)tetrahydropyran-4-amine], the IC50 amounted to 6.4 nM.

In the case of `Cc1cc(CNC2(c3ccc(CN4[C@@H](C)CC[C@H](c5ccccc5)S4(=O)=O)c(F)c3)CCOCC2)no1` [Example 76, 4-[3-fluoro-4-[[(3S,6R)-3-methyl-1,1-dioxo-6-phenyl-thiazinan-2-yl]methyl]phenyl]-N-[(5-methylisoxazol-3-yl)methyl]tetrahydropyran-4-amine], the IC50 stood at 4.6 nM.

Consider `C[C@H]1CC[C@H](c2ccccc2)S(=O)(=O)N1Cc1ccc(C2(NCc3ccc[nH]c3=O)CCOCC2)cc1F` [Example 77, 3-[[[4-[3-fluoro-4-[[(3S,6R)-3-methyl-1,1-dioxo-6-phenyl-thiazinan-2-yl]methyl]phenyl]tetrahydropyran-4-yl]amino]methyl]-1H-pyridin-2-one], for which the IC50 was found to be 87.2 nM.

With `Cc1nc(CNC2(c3ccc(CN4[C@@H](C)CC[C@H](c5ccccc5)S4(=O)=O)c(F)c3)CCOCC2)co1` [Example 78, 4-[3-fluoro-4-[[(3S,6R)-3-methyl-1,1-dioxo-6-phenyl-thiazinan-2-yl]methyl]phenyl]-N-[(2-methyloxazol-4-yl)methyl]tetrahydropyran-4-amine; hydrochloride], the IC50 stood at 30.2 nM.

With `C[C@H]1CC[C@H](c2ccccc2)S(=O)(=O)N1Cc1ccc(C2(N(C)Cc3nnc[nH]3)CCOCC2)cc1F` [Example 79, 4-[3-fluoro-4-[[(3S,6R)-3-methyl-1,1-dioxo-6-phenyl-thiazinan-2-yl]methyl]phenyl]-N-methyl-N-(4H-1,2,4-triazol-3-ylmethyl)tetrahydropyran-4-amine], the 50% inhibitory concentration (IC50) was 77.1 nM.

`C[C@H]1CC[C@H](c2ccccc2)S(=O)(=O)N1Cc1cc(F)c(C2(NC(=O)c3cocn3)CCOCC2)cc1F` [Example 80, N-[4-[2,5-difluoro-4-[[(3S,6R)-3-methyl-1,1-dioxo-6-phenyl-thiazinan-2-yl]methyl]phenyl]tetrahydropyran-4-yl]oxazole-4-carboxamide] showed an IC50 of 4.8 nM.

`C[C@H]1CC[C@H](c2ccccc2)S(=O)(=O)N1Cc1cc(F)c(C2(N(C)Cc3cocn3)CCOCC2)cc1F` [Example 81, 4-[2,5-difluoro-4-[[(3S,6R)-3-methyl-1,1-dioxo-6-phenyl-thiazinan-2-yl]methyl]phenyl]-N-methyl-N-(oxazol-4-ylmethyl)tetrahydropyran-4-amine] had an IC50 of 8.8 nM.

On to `C[C@H]1CC[C@H](c2ccccc2)S(=O)(=O)N1Cc1cc(F)c(C2(NCc3cc(=O)[nH]o3)CCOCC2)cc1F` [Example 82, 5-[[[4-[2,5-difluoro-4-[[(3S,6R)-3-methyl-1,1-dioxo-6-phenyl-thiazinan-2-yl]methyl]phenyl]tetrahydropyran-4-yl]amino]methyl]isoxazol-3-one], for which the IC50 was determined as 5.7 nM.

`C[C@H]1CC[C@H](c2ccccc2)S(=O)(=O)N1Cc1cc(F)c(C2(NCc3ncco3)CCOCC2)cc1F` [Example 83, 4-[2,5-difluoro-4-[[(3S,6R)-3-methyl-1,1-dioxo-6-phenyl-thiazinan-2-yl]methyl]phenyl]-N-(oxazol-2-ylmethyl)tetrahydropyran-4-amine] showed an IC50 of 3.7 nM.

In turn, `C[C@H]1CC[C@H](c2ccccc2)S(=O)(=O)N1Cc1cc(F)c(C2(NCc3cc[nH]n3)COC2)cc1F` [Example 84, 3-[2,5-difluoro-4-[[(3S,6R)-3-methyl-1,1-dioxo-6-phenyl-thiazinan-2-yl]methyl]phenyl]-N-(1H-pyrazol-3-ylmethyl)oxetan-3-amine] displayed an IC50 of 5.7 nM.

In turn, `C[C@H]1CC[C@H](c2ccccc2)S(=O)(=O)N1Cc1cc(F)c(C2(NCc3cocn3)COC2)cc1F` [Example 85, 3-[2,5-difluoro-4-[[(3S,6R)-3-methyl-1,1-dioxo-6-phenyl-thiazinan-2-yl]methyl]phenyl]-N-(oxazol-4-ylmethyl)oxetan-3-amine] had an IC50 of 4.1 nM.

Regarding `Cc1cc(CNC2(c3cc(F)c(CN4[C@@H](C)CC[C@H](c5ccccc5)S4(=O)=O)cc3F)CCOCC2)no1` [Example 86, 4-[2,5-difluoro-4-[[(3S,6R)-3-methyl-1,1-dioxo-6-phenyl-thiazinan-2-yl]methyl]phenyl]-N-[(5-methylisoxazol-3-yl)methyl]tetrahydropyran-4-amine], the IC50 worked out at 5 nM.

As to `C[C@H]1CC[C@H](c2ccccc2)S(=O)(=O)N1Cc1cc(F)c(C2(NCc3ncnn3C)COC2)cc1F` [Example 87, 3-[2,5-difluoro-4-[[(3S,6R)-3-methyl-1,1-dioxo-6-phenyl-thiazinan-2-yl]methyl]phenyl]-N-[(2-methyl-1,2,4-triazol-3-yl)methyl]oxetan-3-amine], the IC50 was 8 nM.

For the molecule `C[C@H]1CC[C@H](c2ccccc2)S(=O)(=O)N1Cc1cc(F)c(C2(NCc3ncco3)COC2)cc1F` [Example 88, 3-[2,5-difluoro-4-[[(3S,6R)-3-methyl-1,1-dioxo-6-phenyl-thiazinan-2-yl]methyl]phenyl]-N-(oxazol-2-ylmethyl)oxetan-3-amine], the half-inhibitory concentration (IC50) worked out at 8.2 nM.
